Data on one molecule can be found in patent publication US8609719B2, “Propargylated aminoindans, processes for preparation, and uses thereof” (priority 2006, dated 2013).

The structures appear in SMILES notation. Counter-ions that a name gives are not always drawn. Like-named read-outs stand apart in the source and are kept apart here.

A word on the inhibition: it is the drop in the measured response relative to a control, in per cent.

The target of one assay is T1, MAO-B (Rattus norvegicus, UniProt P19643).
T1 construct: from tissue; host or cells: brain, liver and intestine (duodenum) of dosed rats
T1 sequence (P19643 1-520): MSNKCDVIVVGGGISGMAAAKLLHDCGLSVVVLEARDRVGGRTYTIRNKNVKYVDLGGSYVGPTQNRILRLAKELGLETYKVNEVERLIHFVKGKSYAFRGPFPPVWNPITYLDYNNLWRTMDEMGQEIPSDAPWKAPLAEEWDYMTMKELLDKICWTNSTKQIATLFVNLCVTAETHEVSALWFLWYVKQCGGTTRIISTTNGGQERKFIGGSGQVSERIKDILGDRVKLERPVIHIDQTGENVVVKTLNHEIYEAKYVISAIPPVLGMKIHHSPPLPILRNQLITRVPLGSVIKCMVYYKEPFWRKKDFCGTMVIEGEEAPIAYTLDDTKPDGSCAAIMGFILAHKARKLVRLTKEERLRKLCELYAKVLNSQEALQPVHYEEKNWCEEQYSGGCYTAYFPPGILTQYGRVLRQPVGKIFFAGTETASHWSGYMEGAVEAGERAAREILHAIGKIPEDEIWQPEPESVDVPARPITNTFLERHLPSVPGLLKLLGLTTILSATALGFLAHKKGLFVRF
The assay can be described thus: MAO-B inhibition in rat organs after chronic P.O. administration. It counts as in vivo. The following applies: po, 7 days, 2 hours after last dose; for inhibition at 37.5 µmol/kg: 37.5 μmol/kg P.O. daily; for inhibition at 75 µmol/kg: 75 μmol/kg P.O. daily; for inhibition at 150 µmol/kg: 150 μmol/kg P.O. daily. As to the method: (§1) 30 rats were separated randomly into 5 testing groups of 6 rats each. Group 1 was the control group to which no drug was administered. Ethyl-hydroxymethyl-carbamic acid 3-R-(prop-2-ynylamino)-indan-5-yl ester fumarate (2:1) was administered to groups 2, 3, 4 in dosages of 150, 75, and 37.5 μmol/kg respectively, daily, perorally (“P.O.”) for seven consecutive days. Water was used as a vehicle.
(§2) Rats were sacrificed, out of sight of the other rats, 2 hours after the last administration. Brains were removed into Petri dishes on ice, the cerebellums were […], and the brains cut into halves for analysis. Livers and intestines were removed for MAO determination. Organs were homogenated for enzyme inhibition analysis.
(§3) The MAO inhibition after administration of ethyl-hydroxymethyl-carbamic acid 3-R-(prop-2-ynylamino)-indan-5-yl ester fumarate (2:1) in various organs is listed in Table 4 calculated in percent relative to the control group.

Another assay relates to MAO. Briefly: MAO inhibition in rat organs after chronic administration, overall conclusion. The class given is in vivo. To be noted: rats, P.O. daily for seven days. As to the method: as §1, §2, §3
Setting [1] is: read-out: Brain MAO-B inhibition relative to control.
Setting [2] is: read-out: Duodenum MAO-B inhibition relative to control.
The mark [3] stands for this setting: read-out: Liver MAO-B inhibition relative to control.

As for `C#CCN[C@@H]1CCc2ccc(OC(=O)N(CC)CO)cc21` [R-HCPAI, Ethyl-hydroxymethyl-carbamic acid 3-R-(prop-2-ynylamino)-indan-5-yl ester fumarate (2:1)], on MAO-B (setting [1]), the inhibition at 37.5 µmol/kg came out at 17%, the inhibition at 75 µmol/kg worked out at 62% and the inhibition at 150 µmol/kg was found to be 83%. Besides, on MAO-B (setting [2]), the inhibition at 37.5 µmol/kg is 7%, the inhibition at 75 µmol/kg stood at 31% and the inhibition at 150 µmol/kg was 35%. Besides, on MAO-B (setting [3]), the inhibition at 37.5 µmol/kg was found to be 15%, the inhibition at 75 µmol/kg was 18% and the inhibition at 150 µmol/kg is 34%. The “organ selectivity of MAO inhibition, in words” value in the assay on MAO is “brain-selective MAO inhibition”.
